From ChEMBL document CHEMBL1777706, “Discovery of selective and orally available spiro-3-piperidyl ATP-competitive MK2 inhibitors” (Bioorg Med Chem Lett, 2011)
The source made the active and inactive calls. No cut-off for these calls is given here.

Legend:
[1] = molecular target: T1, MAP kinase-activated protein kinase 2 (Homo sapiens, UniProt P49137); assay: Inhibition of MK2 pretreated for 30 mins before fluorescein labeled substrate peptide addition measured after 2 hrs by IMAP assay
THP-1 [2] = assay: Antiinflammatory activity in human THP1 cells assessed as inhibition of LPS-induced TNFalpha production pretreated 30 mins before LPS challenge measured after 4 hrs; assay type: functional, cell-based
[3] = molecular target: T1, MAP kinase-activated protein kinase 2; assay: Inhibition of MK2 in LPS-stimulated human THP1 cells assessed as inhibition of Hsp27 phosphorylation pretreated 60 mins before LPS challenge measured after 10 mins; assay type: cell-based, THP-1
PBMC = assay: Antiinflammatory activity in human PBMC cells assessed as inhibition of LPS-induced TNFalpha production pretreated 30 mins before LPS challenge measured after 4 hrs by ELISA; assay type: functional, cell-based
[4] = Inhibition of p38
[5] = molecular target: Serine/threonine-protein kinase pim-1 (Homo sapiens) (UniProt P11309); assay: Inhibition of PIM1 at 1 uM
Chain of Serine/threonine-protein kinase pim-1 (Homo sapiens) (P11309 whole entry, looked up): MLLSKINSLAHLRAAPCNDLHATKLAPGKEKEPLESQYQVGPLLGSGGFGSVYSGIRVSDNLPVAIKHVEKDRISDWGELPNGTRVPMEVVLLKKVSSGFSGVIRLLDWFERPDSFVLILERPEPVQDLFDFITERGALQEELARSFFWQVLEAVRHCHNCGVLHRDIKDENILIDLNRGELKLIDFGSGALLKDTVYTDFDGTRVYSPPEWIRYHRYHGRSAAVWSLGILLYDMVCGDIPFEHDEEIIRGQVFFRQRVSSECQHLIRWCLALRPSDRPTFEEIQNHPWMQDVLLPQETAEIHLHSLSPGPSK

[6] = molecular target: Serine/threonine-protein kinase pim-3 (Homo sapiens) (UniProt Q86V86); assay: Inhibition of PIM3 at 1 uM
[7] = molecular target: Serine/threonine-protein kinase Chk2 (Homo sapiens) (UniProt O96017); assay: Inhibition of CHK2 at 1 uM
Chain of Serine/threonine-protein kinase Chk2 (Homo sapiens) (O96017 whole entry): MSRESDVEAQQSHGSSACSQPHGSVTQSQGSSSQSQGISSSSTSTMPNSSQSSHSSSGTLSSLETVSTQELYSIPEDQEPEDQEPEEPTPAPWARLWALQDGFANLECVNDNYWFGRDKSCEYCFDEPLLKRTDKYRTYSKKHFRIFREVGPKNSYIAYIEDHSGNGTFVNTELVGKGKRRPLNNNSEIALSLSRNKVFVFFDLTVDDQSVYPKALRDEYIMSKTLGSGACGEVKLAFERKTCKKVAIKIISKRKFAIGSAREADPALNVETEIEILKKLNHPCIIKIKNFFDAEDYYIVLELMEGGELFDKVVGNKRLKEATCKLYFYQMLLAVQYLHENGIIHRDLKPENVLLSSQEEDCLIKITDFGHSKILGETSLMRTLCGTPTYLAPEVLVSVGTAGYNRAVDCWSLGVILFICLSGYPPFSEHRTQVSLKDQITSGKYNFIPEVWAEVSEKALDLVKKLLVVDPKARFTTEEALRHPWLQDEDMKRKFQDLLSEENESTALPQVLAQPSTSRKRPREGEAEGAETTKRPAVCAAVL

[8] = molecular target: T2, Serine/threonine-protein kinase 17A (Homo sapiens) (UniProt Q9UEE5); assay: Inhibition of DRAK1 at 1 uM
T2 sequence (whole entry): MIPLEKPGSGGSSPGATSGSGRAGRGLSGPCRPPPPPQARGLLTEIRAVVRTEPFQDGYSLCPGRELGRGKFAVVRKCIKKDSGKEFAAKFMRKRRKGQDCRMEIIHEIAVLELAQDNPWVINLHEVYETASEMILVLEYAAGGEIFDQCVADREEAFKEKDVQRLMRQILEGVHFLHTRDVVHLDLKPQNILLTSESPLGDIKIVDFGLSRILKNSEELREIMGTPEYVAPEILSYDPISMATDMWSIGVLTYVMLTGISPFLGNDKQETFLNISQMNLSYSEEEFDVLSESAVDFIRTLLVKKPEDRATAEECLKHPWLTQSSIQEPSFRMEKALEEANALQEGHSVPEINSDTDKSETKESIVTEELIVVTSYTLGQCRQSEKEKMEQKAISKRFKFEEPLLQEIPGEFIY

[9] = molecular target: Mitogen-activated protein kinase 3 (Homo sapiens) (UniProt P27361); assay: Inhibition of ERK1 at 1 uM
Chain of Mitogen-activated protein kinase 3 (Homo sapiens) (P27361 whole entry): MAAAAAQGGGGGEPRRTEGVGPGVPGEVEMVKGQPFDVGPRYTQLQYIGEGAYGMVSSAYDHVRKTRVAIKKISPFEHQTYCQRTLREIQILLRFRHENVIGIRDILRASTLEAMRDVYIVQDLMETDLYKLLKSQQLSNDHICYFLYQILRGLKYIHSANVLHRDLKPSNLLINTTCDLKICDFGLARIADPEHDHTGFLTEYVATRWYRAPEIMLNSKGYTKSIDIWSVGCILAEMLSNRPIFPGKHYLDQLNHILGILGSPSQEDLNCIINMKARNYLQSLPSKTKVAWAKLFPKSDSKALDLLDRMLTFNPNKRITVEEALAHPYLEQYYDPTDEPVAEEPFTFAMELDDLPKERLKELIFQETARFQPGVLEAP

[10] = molecular target: Mitogen-activated protein kinase 1 (Homo sapiens) (UniProt P28482); assay: Inhibition of ERK2 at 1 uM
Chain of Mitogen-activated protein kinase 1 (Homo sapiens) (P28482 whole entry, looked up): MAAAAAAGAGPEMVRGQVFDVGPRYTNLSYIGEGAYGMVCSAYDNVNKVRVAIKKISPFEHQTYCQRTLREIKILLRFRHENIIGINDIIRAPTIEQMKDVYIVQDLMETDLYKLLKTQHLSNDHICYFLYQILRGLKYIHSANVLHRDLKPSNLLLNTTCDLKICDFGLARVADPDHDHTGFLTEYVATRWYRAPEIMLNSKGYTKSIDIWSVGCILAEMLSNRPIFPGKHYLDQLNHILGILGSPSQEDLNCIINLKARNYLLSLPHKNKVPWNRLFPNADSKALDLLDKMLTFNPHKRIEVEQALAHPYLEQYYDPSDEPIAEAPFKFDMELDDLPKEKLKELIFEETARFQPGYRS

[11] = Dissociation constant, pKa of the compound at pH 7.4; assay type: physicochemical
[12] = Half life in human liver microsomes; assay type: ADME, Microsome
[13] = Half life in rat liver microsomes; assay type: ADME, Microsome
[14] = AUC in po dosed rat; assay type: ADME, organism-based; conditions: plasma
in vitro = conditions: human, Caco-2
Description: Permeability across human Caco2 cells

THP-1 [15] = assay: Cytotoxicity against human THP1 cells by Alamar blue assay; assay type: cell-based

T1 sequence (P49137 whole entry): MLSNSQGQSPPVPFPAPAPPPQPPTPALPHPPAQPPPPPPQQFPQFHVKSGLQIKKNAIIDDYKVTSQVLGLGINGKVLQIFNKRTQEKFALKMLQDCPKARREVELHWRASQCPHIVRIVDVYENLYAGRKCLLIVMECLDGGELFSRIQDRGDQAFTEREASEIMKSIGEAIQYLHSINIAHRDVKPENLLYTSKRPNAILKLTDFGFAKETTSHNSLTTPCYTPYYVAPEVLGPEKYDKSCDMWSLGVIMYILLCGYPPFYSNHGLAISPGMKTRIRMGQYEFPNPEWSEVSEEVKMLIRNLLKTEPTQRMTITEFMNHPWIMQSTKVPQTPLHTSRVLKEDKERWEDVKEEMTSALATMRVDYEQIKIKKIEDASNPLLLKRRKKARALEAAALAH

Row | SMILES | EC50 [1] | EC50 (THP-1 [2]) | EC50 [3] | inhibition [4] | inhibition [5] | inhibition [6] | inhibition [7] | inhibition [8] | inhibition [9] | inhibition [10] | pKa [11] | half-life [12] | half-life [13] | AUC [14] | Papp (in vitro) | EC50 (PBMC) | Activity (THP-1 [15])
1 | COc1cncc(-c2nccc(-c3cc4c([nH]3)[C@]3(CCCNC3)CNC4=O)n2)c1 | 9.3 nM | 2400 nM | 1100 nM | inactive | > 80% | > 80% | > 80% | > 80% | > 80% | > 80% |  |  |  |  |  | 1300 nM | 
2 | O=C1NC[C@]2(CCCNC2)c2[nH]c(-c3ccnc(-c4ccc5c(c4)OCO5)n3)cc21 | 91 nM | 8300 nM | 7700 nM | inactive | > 80% | > 80% | > 80% | > 80% | > 80% | > 80% |  |  |  |  |  | 3000 nM | 
3 | O=C1NCC2(CCNCC2)c2[nH]c(-c3ccnc(-c4ccc5c(c4)OCCCO5)n3)cc21 | 10 nM | 4900 nM |  | inactive | > 80% | > 80% | > 80% | > 80% | > 80% | > 80% |  |  |  |  |  |  | 
4 | COCCCOc1ccc(-c2nccc(-c3cc4c([nH]3)C3(CCCNC3)CNC4=O)n2)cn1 (racemic) | 21 nM | 1500 nM | 1400 nM | inactive | > 80% | > 80% | > 80% | > 80% | > 80% | > 80% | 8.2 | > 1 h | > 1 h | 0.882 µM·h | 4.2 ×10⁻⁶ cm/s | 920 nM | 
5 | O=C1NC[C@]2(CCCNC2)c2[nH]c(-c3ccnc(-c4cccnc4)n3)cc21 | 288 nM | 8700 nM | 5800 nM | inactive | > 80% | > 80% | > 80% | > 80% | > 80% | > 80% |  |  |  |  |  | 4300 nM | 
6 | O=C1NCC2(CCOCC2)c2[nH]c(-c3ccnc(-c4ccc5c(c4)OCO5)n3)cc21 | 724 nM | > 10000 nM |  | inactive | > 80% | > 80% | > 80% | > 80% | > 80% | > 80% |  |  |  |  |  |  | 
7 | CC(=O)c1cccc(-c2nccc(-c3cc4c([nH]3)C3(CCNCC3)CNC4=O)n2)c1 | 11 nM | 6200 nM |  | inactive | > 80% | > 80% | > 80% | > 80% | > 80% | > 80% |  |  |  |  |  |  | 
8 | CC(C)c1cccc(-c2nccc(-c3cc4c([nH]3)C3(CCNCC3)CNC4=O)n2)c1 | 112 nM | > 10000 nM |  | inactive | > 80% | > 80% | > 80% | > 80% | > 80% | > 80% |  |  |  |  |  |  | 
9 | O=C1NCC2(CCNCC2)c2[nH]c(-c3ccnc(-c4cccc(C(F)(F)F)c4)n3)cc21 | 15 nM | 4200 nM |  | inactive | > 80% | > 80% | > 80% | > 80% | > 80% | > 80% |  |  |  |  |  |  | 
10 | COc1cncc(-c2nccc(-c3cc4c([nH]3)[C@@]3(CCCNC3)CNC4=O)n2)c1 | 126 nM | 2200 nM | 2300 nM | inactive | > 80% | > 80% | > 80% | > 80% | > 80% | > 80% |  |  |  |  |  | > 10000 nM | 
11 | COCCCOc1ccc(-c2nccc(-c3cc4c([nH]3)[C@@]3(CCCNC3)CNC4=O)n2)cn1 | 129 nM | > 10000 nM | > 10000 nM | inactive | > 80% | > 80% | > 80% | > 80% | > 80% | > 80% |  |  |  |  |  | 6900 nM | 
12 | O=C1NCC2(CCCNC2)c2[nH]c(-c3ccnc(-c4cccnc4)n3)cc21 (racemic) | 18 nM | 3000 nM | 2100 nM | inactive | > 80% | > 80% | > 80% | > 80% | > 80% | > 80% |  |  |  |  |  | 3300 nM | 

The next compounds have a lower EC50 [1] than those just listed; values first:

Row | EC50 [1] | EC50 (THP-1 [2]) | EC50 [3] | inhibition [4] | inhibition [5] | inhibition [6] | inhibition [7] | inhibition [8] | inhibition [9] | inhibition [10] | pKa [11] | half-life [12] | half-life [13] | AUC [14] | Papp (in vitro) | SMILES | EC50 (PBMC) | Activity (THP-1 [15])
13 | 7.4 nM | 850 nM | 500 nM | inactive | > 80% | > 80% | > 80% | > 80% | > 80% | > 80% |  |  |  |  |  | O=C1NC[C@@]2(CCCNC2)c2[nH]c(-c3ccnc(-c4ccc5c(c4)OCO5)n3)cc21 | 450 nM | 
14 | 6.9 nM | > 10000 nM |  | inactive | > 80% | > 80% | > 80% | > 80% | > 80% | > 80% |  |  |  |  |  | COc1cncc(-c2nccc(-c3cc4c([nH]3)C3(CCNCC3)CNC4=O)n2)c1 |  | 
15 | 6.9 nM | 980 nM | 400 nM | inactive | > 80% | > 80% | > 80% | > 80% | > 80% | > 80% |  |  |  |  |  | COCCCOc1ccc(-c2nccc(-c3cc4c([nH]3)[C@]3(CCCNC3)CNC4=O)n2)cn1 | 430 nM | 
16 | 6.5 nM | 1600 nM | 1200 nM | inactive | > 80% | > 80% | > 80% | > 80% | > 80% | > 80% |  |  |  |  |  | O=C1NC[C@@]2(CCCNC2)c2[nH]c(-c3ccnc(-c4cccnc4)n3)cc21 | 930 nM | 
17 | 6.2 nM | 5900 nM |  | inactive | > 80% | > 80% | > 80% | > 80% | > 80% | > 80% |  |  |  |  |  | CC(C)(C)c1ccc(-c2nccc(-c3cc4c([nH]3)C3(CCNCC3)CNC4=O)n2)cc1 |  | 
18 | 5.9 nM | 280 nM | 1200 nM | inactive | > 80% | > 80% | > 80% | > 80% | > 80% | > 80% | 9.1 | > 1 h | > 1 h | < 0.006 µM·h |  | O=C1NCC2(CCNCC2)c2[nH]c(-c3ccnc(-c4cc5ccccc5o4)n3)cc21 |  | > 10 µM
19 | 5.1 nM | 3600 nM |  | inactive | > 80% | > 80% | > 80% | > 80% | > 80% | > 80% |  |  |  |  |  | O=C1NCC2(CCNCC2)c2[nH]c(-c3ccnc(-c4ccc5ccccc5c4)n3)cc21 |  | 
